SMILES strings stand for the structures.

Chain of Shp2 (Q06124 205-593): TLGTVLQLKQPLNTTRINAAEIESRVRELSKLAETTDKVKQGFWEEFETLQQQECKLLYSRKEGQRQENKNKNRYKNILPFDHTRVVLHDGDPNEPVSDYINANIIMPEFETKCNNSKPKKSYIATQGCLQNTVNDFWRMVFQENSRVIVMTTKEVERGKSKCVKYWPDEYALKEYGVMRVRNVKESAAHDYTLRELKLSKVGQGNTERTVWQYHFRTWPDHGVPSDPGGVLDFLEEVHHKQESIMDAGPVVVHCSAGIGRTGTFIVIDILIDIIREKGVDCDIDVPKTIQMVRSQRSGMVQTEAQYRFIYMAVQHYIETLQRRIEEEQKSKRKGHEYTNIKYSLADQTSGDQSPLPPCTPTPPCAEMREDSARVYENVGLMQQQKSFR

The target in the first experiment is Shp2 (Homo sapiens (Human), UniProt Q06124). The experiment is described as follows: PTP activity assay (DiFMUP substrate) with GST-Shp2. Type of experiment: biochemical. To be noted: Table II, Shp2. The text has this:
All constructs were verified by DNA sequencing.
Recombinant DEP1 was from Abcam.
`O=C1Nc2ccccc2/C1=N/Nc1ccccc1[N+](=O)[O-]` [HL1-047]: the IC50 (as a rule, the concentration needed to halve the response being measured) fell in the range of 33 to 100 µM.
For the compound `O=C1Nc2ccccc2/C1=N/Nc1ccccc1Cl` [HL1-050-1], the half-inhibitory concentration (IC50) lay within 33 to 100 µM.
The same measure, in the same setting: under `O=C1Nc2ccc(S(=O)(=O)O)cc2/C1=N/Nc1ccccc1Cl` [HL1-058-1] stands 33 to 100 µM.
Turning to `O=C1Nc2ccc(S(=O)(=O)O)cc2/C1=N/Nc1cccc([N+](=O)[O-])c1` [HL1-058-2], the concentration for half-maximal inhibition (IC50) lay within 33 to 100 µM.
Same read-out and setting: under `O=C1Nc2ccc(S(=O)(=O)O)cc2/C1=N/Nc1nc2ccccc2s1` [HL1-058-3] stands 33 to 100 µM; under `COC(=O)c1cc(NC(=O)c2ccc3cc(C(=O)OC)ccc3c2)cc(C(=O)OC)c1` [HL2-026-Intermediate], 33 to 100 µM.
The same measure, in the same setting: with `CN(C)S(=O)(=O)c1ccc2c(c1)/C(=N/Nc1ccccc1[N+](=O)[O-])C(=O)N2` [RPM124, 3-[(2-Nitrophenyl)hydrazono]-2-oxo-2,3-dihydro-1H-indole-5-sulfonic acid dimethylamide] the figure was 33 to 100 µM; with `O=C1Nc2ccc(S(=O)(=O)NCc3ccccn3)cc2/C1=N/Nc1ccccc1[N+](=O)[O-]` [RPM135, 3-[(2-Nitrophenyl)hydrazono]-2-oxo-2,3-dihydro-1H-indole-5-sulfonic acid (pyridin-2-ylmethyl)amide], 33 to 100 µM.

The experiment is the same for the next values; noted with them: at 20 μM.
On to `O=C1Nc2ccc(C(=O)O)cc2/C1=N/Nc1ccccc1[N+](=O)[O-]` [HL2-054], for which the “% PTP activity” value was 60.57% (1) at 20 μM.
With `CCN(CC)C(=O)c1ccc2c(c1)/C(=N/Nc1ccccc1C(=O)O)C(=O)N2` [HL2-070-1], the “% PTP activity” value is 100.18% (1) at 20 μM.
Same read-out and setting: with `CCN(CC)C(=O)c1ccc2c(c1)/C(=N/Nc1cccc(C(=O)O)c1)C(=O)N2` [HL2-070-2] the figure was 57.16% (1) at 20 μM.
Still for that read-out and setting: under `CCN(CC)C(=O)c1ccc2c(c1)/C(=N/Nc1ccccc1[N+](=O)[O-])C(=O)N2` [HL2-070-3] stands 14 ± 2% (2) at 20 μM; under `O=C1Nc2ccc(C(=O)NCc3ccc(Cl)cc3)cc2/C1=N/Nc1ccccc1C(=O)O` [HL2-070-4], 30 ± 4% (2) at 20 μM; under `CC(C)NC(=O)c1ccc2c(c1)/C(=N/Nc1ccccc1C(=O)O)C(=O)N2` [HL2-070-6], 78.87% (1) at 20 μM.
With `CC(C)NC(=O)c1ccc2c(c1)/C(=N/Nc1cccc(C(=O)O)c1)C(=O)N2` [HL2-070-7], the “% PTP activity” value is 53.62% (1) at 20 μM.
Regarding `O=C1Nc2ccc(C(=O)NCc3ccc(Cl)cc3)cc2/C1=N/Nc1cccc(C(=O)O)c1` [HL2-070-9], the “% PTP activity” value is reported as 25 ± 2% (2) at 20 μM.

Still in this experiment, the particulars now being: concentration not given.
`O=C1Nc2ccccc2/C1=N/Nc1ccccc1[N+](=O)[O-]` [HL1-047]: the “% PTP activity” value is given as 93 ± 9% (3).
Regarding `O=C1Nc2ccccc2/C1=N/Nc1ccccc1Cl` [HL1-050-1], the “% PTP activity” value is listed as 99 ± 2% (3).
On the same count and under the same terms, under `O=C1Nc2ccccc2/C1=N/Nc1cccc([N+](=O)[O-])c1` [HL1-050-2] stands 32 ± 3% (3).
Regarding `O=C1Nc2ccc(S(=O)(=O)O)cc2/C1=N/Nc1ccccc1Cl` [HL1-058-1], the “% PTP activity” value was 69 ± 9% (2).
`O=C1Nc2ccc(S(=O)(=O)O)cc2/C1=N/Nc1cccc([N+](=O)[O-])c1` [HL1-058-2]: the “% PTP activity” value is 73 ± 7% (3).
On the same count and under the same terms, with `O=C1Nc2ccc(S(=O)(=O)O)cc2/C1=N/Nc1nc2ccccc2s1` [HL1-058-3] the figure was 46 ± 4% (3).
Still for that read-out and setting: with `CN(C)S(=O)(=O)c1ccc2c(c1)/C(=N/Nc1ccccc1Cl)C(=O)N2` [HL2-016-1] the figure was 36 ± 11% (12); with `COc1ccc(CNS(=O)(=O)c2ccc3c(c2)/C(=N/Nc2ccccc2Cl)C(=O)N3)cc1` [HL2-016-3], 84 ± 24% (6).
Same read-out and setting: under `O=C1Nc2ccc(S(=O)(=O)NCc3ccc(Cl)cc3)cc2/C1=N/Nc1ccccc1Cl` [HL2-016-4] stands 32 ± 17% (12).
As for `COc1cccc(CNS(=O)(=O)c2ccc3c(c2)/C(=N/Nc2ccccc2Cl)C(=O)N3)c1` [HL2-016-5], the “% PTP activity” value was 51 ± 4% (6).
Still for that read-out and setting: with `O=C1Nc2ccc(S(=O)(=O)NCc3cccs3)cc2/C1=N/Nc1ccccc1Cl` [HL2-016-6] the figure was 51 ± 3% (6); with `O=C1Nc2ccc(S(=O)(=O)NCc3ccccn3)cc2/C1=N/Nc1ccccc1Cl` [HL2-016-7], 41 ± 23% (12); with `O=C1Nc2ccc(S(=O)(=O)NCN3CCOCC3)cc2/C1=N/Nc1ccccc1Cl` [HL2-016-8], 41 ± 4% (6).
As to `CCCNS(=O)(=O)c1ccc2c(c1)/C(=N/Nc1ccccc1Cl)C(=O)N2` [HL2-016-9], the “% PTP activity” value is 48 ± 1% (6).
Still for that read-out and setting: under `CC(C)CNS(=O)(=O)c1ccc2c(c1)/C(=N/Nc1ccccc1Cl)C(=O)N2` [HL2-016-10] stands 36 ± 17 (12) %; under `O=C1Nc2ccc(S(=O)(=O)NCc3ccco3)cc2/C1=N/Nc1ccccc1Cl` [HL2-016-11], 55 ± 7% (6).
Still for that read-out and setting: with `COCCNS(=O)(=O)c1ccc2c(c1)/C(=N/Nc1ccccc1Cl)C(=O)N2` [HL2-016-12] the figure was 32 ± 3% (6); with `CCC(C)NS(=O)(=O)c1ccc2c(c1)/C(=N/Nc1ccccc1Cl)C(=O)N2` (stereo not shown) [HL2-016-13], 35 ± 4% (6); with `O=C1Nc2ccc(S(=O)(=O)NCC3CCCO3)cc2/C1=N/Nc1ccccc1Cl` (stereo not shown) [HL2-016-14], 42 ± 5% (6).
The same measure, in the same setting: under `O=C1Nc2ccc(S(=O)(=O)NCc3ccncc3)cc2/C1=N/Nc1ccccc1Cl` [HL2-016-15] stands 48 ± 5% (6); under `CN(Cc1ccccc1)S(=O)(=O)c1ccc2c(c1)/C(=N/Nc1ccccc1Cl)C(=O)N2` [HL2-016-16], 64 ± 12% (6); under `O=C1Nc2ccc(S(=O)(=O)NCc3cccnc3)cc2/C1=N/Nc1ccccc1Cl` [HL2-016-18], 78 ± 10% (6).
Consider `CN(C)CCNS(=O)(=O)c1ccc2c(c1)/C(=N/Nc1ccccc1Cl)C(=O)N2` [HL2-016-19], for which the “% PTP activity” value is reported as 89 ± 3% (6).
Consider `O=C1Nc2ccc(S(=O)(=O)NCc3cccnc3)cc2/C1=N/Nc1ccccc1[N+](=O)[O-]` [HL2-016-20], for which the “% PTP activity” value is listed as 68 ± 8% (6).
As to `CN(C)CCCNS(=O)(=O)c1ccc2c(c1)/C(=N/Nc1ccccc1[N+](=O)[O-])C(=O)N2` [HL2-016-21], the “% PTP activity” value is given as 77 ± 2% (6).
On the same count and under the same terms, with `CN(C)CCCNS(=O)(=O)c1ccc2c(c1)/C(=N/Nc1ccccc1Cl)C(=O)N2` [HL2-016-22] the figure was 80 ± 0.7% (6); with `NS(=O)(=O)c1ccc2c(c1)/C(=N/Nc1ccccc1Cl)C(=O)N2` [HL2-016.2], 40 ± 8% (12); with `CCOC(=O)c1cccc(NC(=O)c2ccc3cc(C(=O)OC)ccc3c2)c1` [HL2-022-1-Intermediate], 68 ± 20% (7).
For `O=C(O)c1cccc(NC(=O)c2ccc3cc(C(=O)O)ccc3c2)c1` [HL2-022-1], the “% PTP activity” value was 53 ± 4% (6).
For the compound `O=C(O)c1ccc2cc(C(=O)Nc3cccc(S(=O)(=O)O)c3)ccc2c1` [HL2-022-2], the “% PTP activity” value is on record as 52 ± 17% (5).
Regarding `COC(=O)c1cc(NC(=O)c2ccc3cc(C(=O)OC)ccc3c2)cc(C(=O)OC)c1` [HL2-026-Intermediate], the “% PTP activity” value is reported as 40 ± 4% (6).
As to `O=C(O)c1cc(NC(=O)c2ccc3cc(C(=O)O)ccc3c2)cc(C(=O)O)c1` [HL2-026], the “% PTP activity” value is 87 ± 14% (6).
As to `O=C1C=CC2C(=C1O)Oc1c(ccc(O)c1O)C2C1CCCCC1C(=O)O` (stereo not shown) [NSC-119910, reference compound], the “% PTP activity” value is listed as 0.56 ± 0.1% (3).
On the same count and under the same terms, with `CN(C)S(=O)(=O)c1ccc2c(c1)/C(=N/Nc1ccccc1[N+](=O)[O-])C(=O)N2` [RPM124, 3-[(2-Nitrophenyl)hydrazono]-2-oxo-2,3-dihydro-1H-indole-5-sulfonic acid dimethylamide] the figure was 52 ± 5% (6); with `O=C1Nc2ccc(S(=O)(=O)NCc3ccccn3)cc2/C1=N/Nc1ccccc1[N+](=O)[O-]` [RPM135, 3-[(2-Nitrophenyl)hydrazono]-2-oxo-2,3-dihydro-1H-indole-5-sulfonic acid (pyridin-2-ylmethyl)amide], 47 ± 10% (12).
Same read-out and setting: with `CN(Cc1ccccc1)S(=O)(=O)c1ccc2c(c1)/C(=N/Nc1ccccc1[N+](=O)[O-])C(=O)N2` [RPM136, 3-[(2-Nitrophenyl)hydrazono]-2-oxo-2,3-dihydro-1H-indole-5-sulfonic acid benzyl-methylamide] the figure was 39 ± 8% (12).
